# Measured values: patent US8163793B2, “Proline derivatives” (Hoffman-La Roche Inc., priority 2009, dated 2012)
# Counter-ions that a name gives are not always drawn.
# Assays:
# Cathepsin S = Cathepsin S (UniProt P25774); assay: Cathepsin enzyme inhibition assay (fluorogenic peptide substrate Z-Val-Val-Arg-AMC), Cathepsin S; format: biochemical, human and mouse; conditions: enzyme 1 nM, substrate 20 μM, pH 6.5; read-out: CatS IC50
# Procedure, shortened: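 Compounds were combined with 1 nM human or mouse enzyme, and substrate then started the reaction. The buffer was potassium phosphate (100 mM, pH 6.5) containing EDTA-Na 5 mM, Triton X-100 0.001% and […] 5 mM.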
# Cat L = Cat L (UniProt P07711); assay: Cathepsin enzyme inhibition assay (fluorogenic peptide substrate Z-Val-Val-Arg-AMC), Cathepsin L; format: biochemical, human and mouse; conditions: enzyme 1 nM, substrate 20 μM, pH 6.5; read-out: CatL IC50
# Procedure, shortened: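 Fluorogenic cleavage of Z-Val-Val-Arg-AMC (20 μM) by 1 nM Cat L was monitored at ex 360/em 465 nm for 20 min, the linear phase. The buffer was 100 mM potassium phosphate pH 6.5 with 5 mM EDTA and DTT. IC50 values were derived by standard methods, in μM.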
SMILES,IC50 (Cathepsin S) [nM],IC50 (Cat L) [nM]
"N#CC1(NC(=O)[C@H]2C[C@@H](S(=O)(=O)c3ccc(Cl)cc3Cl)CN2c2ncccc2C(F)(F)F)CC1 [Example 189, (2R,4R)-4-(2,4-Dichloro-benzenesulfonyl)-1-(3-trifluoromethyl-pyridin-2-yl)-pyrrolidine-2-carboxylic acid (1-cyano-cyclopropyl)-amide]",665,≥ 25000
"Cn1cc(-c2ccc(C3(C(=O)N4C[C@H](S(=O)(=O)c5ccc(OCC(F)(F)F)cc5Cl)C[C@H]4C(=O)NC4(C#N)CC4)CC3)cc2)cn1 [Example 288, (2S,4R)-4-[2-Chloro-4-(2,2,2-trifluoro-ethoxy)-benzenesulfonyl]-1-{1-[4-(1-methyl-1H-pyrazol-4-yl)-phenyl]-cyclopropanecarbonyl}-pyrrolidine-2-carboxylic acid (1-cyano-cyclopropyl)-amide]",0.08,3480
"C[C@H](Oc1ccc(S(=O)(=O)[C@@H]2C[C@H](C(=O)NC3(C#N)CC3)N(C(=O)C3(C(F)(F)F)CC3)C2)c(Cl)c1)C(F)(F)F [Example 184, (2R,4R)-4-[2-Chloro-4-((S)-2,2,2-trifluoro-1-methyl-ethoxy)-benzenesulfonyl]-1-(1-trifluoromethyl-cyclopropanecarbonyl)-pyrrolidine-2-carboxylic acid (1-cyano-cyclopropyl)-amide]",32,≥ 25000
"CC(C)(C#N)NC(=O)[C@@H]1C[C@@H](S(=O)(=O)c2ccccc2Cl)CN1C(=O)OC(C)(C)C [Example 33, (2S,4R)-4-(2-Chloro-benzenesulfonyl)-2-[(cyano-dimethyl-methyl)-carbamoyl]-pyrrolidine-1-carboxylic acid tert-butyl ester]",675,≥ 25000
"CN1CCN(c2ccc(S(=O)(=O)[C@H]3CN[C@H](C(=O)NC4(C#N)CC4)C3)c(C(F)(F)F)c2)CC1 [Example 21, (2S,4R)-4-[4-(4-Methyl-piperazin-1-yl)-2-trifluoromethyl-benzenesulfonyl]-pyrrolidine-2-carboxylic acid (1-cyano-cyclopropyl)-amide hydrochloride]",0.8,40800
"Cc1cc(N2C[C@H](S(=O)(=O)c3ccccc3C(F)(F)F)C[C@H]2C(=O)NC2(C#N)CC2)n(C(C)C)n1 [Example 268, (2S,4R)-1-(2-Isopropyl-5-methyl-2H-pyrazol-3-yl)-4-(2-trifluoromethyl-benzenesulfonyl)-pyrrolidine-2-carboxylic acid (1-cyano-cyclopropyl)-amide]",2.35,47300
"CC(C)(C)C(=O)N1C[C@H](S(=O)(=O)c2ccc(Cl)cc2Cl)C[C@H]1C(=O)NC1(C#N)CC1 [Example 225, (2S,4R)-4-(2,4-Dichloro-benzenesulfonyl)-1-(2,2-dimethyl-propionyl)-pyrrolidine-2-carboxylic Acid (1-cyano-cyclopropyl)-amide]",1.2,18300
"N#CC1(NC(=O)[C@@H]2C[C@@H](S(=O)(=O)c3ccccc3Cl)CN2C(=O)C2(c3ccc(Cl)c(F)c3)CC2)CC1 [Example 446, (2S,4R)-4-(2-Chloro-benzenesulfonyl)-1-[1-(4-chloro-3-fluoro-phenyl)-cyclopropanecarbonyl]-pyrrolidine-2-carboxylic acid (1-cyano-cyclopropyl)-amide]",0.275,21.5
"CCc1ccccc1S(=O)(=O)[C@H]1CN[C@H](C(=O)NC2(C#N)CC2)C1 [Example 11, (2S,4R)-4-(2-Ethyl-benzenesulfonyl)-pyrrolidine-2-carboxylic acid (1-cyano-cyclopropyl)-amide Hydrochloride]",30,≥ 25000
"N#CC1(NC(=O)[C@@H]2C[C@@H](S(=O)(=O)c3ccccc3Cl)CN2CC(F)F)CC1 [Example 88, (2S,4R)-4-(2-Chloro-benzenesulfonyl)-1-(2,2-difluoro-ethyl)-pyrrolidine-2-carboxylic acid (1-cyano-cyclopropyl)-amide]",275,≥ 25000
"N#CC1(NC(=O)[C@@H]2C[C@@H](S(=O)(=O)c3c(Cl)cccc3Cl)CN2)CC1 [Example 16, (2S,4R)-4-(2,6-Dichloro-benzenesulfonyl)-pyrrolidine-2-carboxylic acid (1-cyano-cyclopropyl)-amide Hydrochloride]",13.2,≥ 25000
"N#CC1(NC(=O)[C@@H]2C[C@@H](S(=O)(=O)c3ccccc3Cl)CN2C(=O)C2(c3ccc(Br)cc3)CC2)CC1 [Example 426, (2S,4R)-1-(1-(4-bromophenyl)cyclopropanecarbonyl)-4-(2-chlorophenylsulfonyl)-N-(1-cyanocyclopropyl)pyrrolidine-2-carboxamide]",0.47,45
"Cc1cc(N2C[C@H](S(=O)(=O)c3ccccc3C(F)(F)F)C[C@H]2C(=O)NC2(C#N)CC2)n(-c2ccn(C(=O)OCC(C)C)c(=O)c2)n1 [Example 231, 4-{5-[(2S,4R)-2-(1-Cyano-cyclopropylcarbamoyl)-4-(2-trifluoromethyl-benzenesulfonyl)-pyrrolidin-1-yl]-3-methyl-pyrazol-1-yl}-2-oxo-2H-pyridine-1-carboxylic acid Isobutyl ester]",0.5,> 25000

# Further molecules by falling IC50 (Cathepsin S), results first:
IC50 (Cathepsin S) [nM],IC50 (Cat L) [nM],SMILES
42.7,≥ 25000,"N#CCNC(=O)[C@@H]1C[C@@H](S(=O)(=O)c2ccccc2)CN1C(c1ccccc1)C(F)(F)F (stereo partly drawn) [Example 56, (2S,4R)-4-Benzenesulfonyl-1-(2,2,2-trifluoro-1-phenyl-ethyl)-pyrrolidine-2-carboxylic acid cyanomethyl-amide]"
8,20400,"CC(Oc1ccc(S(=O)(=O)[C@H]2CN[C@H](C(=O)NC3(C#N)CC3)C2)c(Cl)c1)C(F)(F)F (stereo partly drawn) [Example 129, (2S,4R)-4-[2-Chloro-4-(2,2,2-trifluoro-1-methyl-ethoxy)-benzenesulfonyl]-pyrrolidine-2-carboxylic acid (1-cyano-cyclopropyl)-amide]"
3.3,30300,"N#CC1(NC(=O)[C@@H]2C[C@@H](S(=O)(=O)c3ccc(Br)cc3C(F)(F)F)CN2)CC1 [Example 18, (2S,4R)-4-(4-Bromo-2-trifluoromethyl-benzenesulfonyl)-pyrrolidine-2-carboxylic acid (1-cyano-cyclopropyl)-amide hydrochloride]"
2.5,3880,"COCCOc1ccc(S(=O)(=O)[C@@H]2C[C@@H](C(=O)NC3(C#N)CC3)N(c3cc(C)nn3C3CCOCC3)C2)c(Cl)c1 [Example 488, (2S,4R)-4-[2-Chloro-4-(2-methoxy-ethoxy)-benzenesulfonyl]-1-[5-methyl-2-(tetrahydro-pyran-4-yl)-2H-pyrazol-3-yl]-pyrrolidine-2-carboxylic acid (1-cyano-cyclopropyl)-amide]"
1.34,521,"Cc1cc(N2C[C@H](S(=O)(=O)c3ccc(N4CC(F)(F)C4)cc3Cl)C[C@H]2C(=O)NC2(C#N)CC2)n(CCc2ccccc2)n1 [Example 483, (2S,4R)-4-[2-Chloro-4-(3,3-difluoro-azetidin-1-yl)-benzenesulfonyl]-1-(5-methyl-2-phenethyl-2H-pyrazol-3-yl)-pyrrolidine-2-carboxylic acid (1-cyano-cyclopropyl)-amide]"
0.855,60,"N#CC1(NC(=O)[C@@H]2C[C@@H](S(=O)(=O)c3ccc(OCC(F)(F)F)cc3Cl)CN2C(=O)C2(c3cccc4ccccc34)CC2)CC1 [Example 347, (2S,4R)-4-[2-Chloro-4-(2,2,2-trifluoro-ethoxy)-benzenesulfonyl]-1-(1-naphthalen-1-yl-cyclopropanecarbonyl)-pyrrolidine-2-carboxylic acid (1-cyano-cyclopropyl)-amide]"
0.5,≥ 25000,"N#CC1(NC(=O)[C@@H]2C[C@@H](S(=O)(=O)c3ccc(-n4cnc5ccccc54)cc3C(F)(F)F)CN2)CC1 [Example 22, (2S,4R)-4-(4-Benzoimidazol-1-yl-2-trifluoromethyl-benzenesulfonyl)-pyrrolidine-2-carboxylic Acid (1-cyano-cyclopropyl)-amide hydrochloride]"
0.4,≥ 25000,"N#CCNC(=O)[C@@H]1C[C@@H](S(=O)(=O)c2ccccc2C(F)(F)F)CN1C(=O)c1ccncc1 [Example 69, (2S,4R)-1-(Pyridine-4-carbonyl)-4-(2-trifluoromethyl-benzenesulfonyl)-pyrrolidine-2-carboxylic acid cyanomethyl-amide]"
0.365,460,"N#CC1(NC(=O)[C@@H]2C[C@@H](S(=O)(=O)c3ccccc3Cl)CN2C(=O)C2(c3cccc(C(F)(F)F)c3)CC2)CC1 [Example 429, (2S,4R)-4-(2-chlorophenylsulfonyl)-N-(1-cyanocyclopropyl)-1-(1-(3-(trifluoromethyl)phenyl)cyclopropanecarbonyl)pyrrolidine-2-carboxamide]"
0.26,335,"N#CC1(NC(=O)[C@@H]2C[C@@H](S(=O)(=O)c3ccccc3Cl)CN2C(=O)C2(c3ccc(F)cc3)CC2)CC1 [Example 425, (2S,4R)-4-(2-chlorophenylsulfonyl)-N-(1-cyanocyclopropyl)-1-(1-(4-fluorophenyl)-cyclopropanecarbonyl)pyrrolidine-2-carboxamide]"
0.185,1180,"N#CC1(NC(=O)[C@@H]2C[C@@H](S(=O)(=O)c3ccccc3C(F)(F)F)CN2C(=O)C2(c3ccc(Cl)cc3)CCC2)CC1 [Example 360, (2S,4R)-1-[1-(4-Chloro-phenyl)-cyclobutanecarbonyl]-4-(2-trifluoromethyl-benzenesulfonyl)-pyrrolidine-2-carboxylic acid (1-cyano-cyclopropyl)-amide]"
